This note sets out measurements from patent publication US12715848B2, “Process for the diastereomerically pure preparation of DL/LD-methionylmethionine” (Evonik Operations GmbH, priority 2020, dated 2026).

Molecules are shown by their SMILES. In brackets after ≈: the same amount, converted by molar mass. Residues, ends and D or L forms follow the SMILES beside them. Some results are limits rather than exact numbers.

The nature of data set [1]: Water solubility at room temperature.
Data set [2] can be described thus: Determination of bulk density (1 L measuring cylinder). It counts as physicochemical. On the procedure: The bulk density in kg/L was determined using a 1 L measuring cylinder, which was filled with the bulk material precisely to the 1000 ml mark, and was measured by weighing the weight of the contents so as to result in the bulk density directly.
The next data set is described as follows: Minimum ignition energy. In kind it is physicochemical.
A short description of the next data set: Dust content. It counts as physicochemical. The conditions noted are these: fraction <63 μm.

With `CSCCC(N)C(=O)NC(CCSC)C(=O)O` (stereo not drawn) [DDLL-Met-Met, DD/LL-methionylmethionine] (H-Met-Met-OH; configuration not given here), in data set [1], the water solubility stood at 21.0 mg/mL (≈ 74.9 mM).

For `CSCCC(N)C(=O)NC(CCSC)C(=O)O` (stereo not drawn) [DLLD-Met-Met, DL/LD-methionylmethionine] (H-Met-Met-OH; configuration not given here), the bulk density in data set [2] is above 600 kg/m^3. Also, the minimum ignition energy entry was “above 3 mJ” in the data set “Minimum ignition energy” (100° C.) and “above 10 mJ” in the data set “Minimum ignition energy” (room temperature). Also, in “Dust content”, the dust content entry is “approx. 10%”.
